Several values for one entry are separate records, joined by “and”; a condition that tells them apart may be missing. Equal entries are not always repeated.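 Following 48 hours of exposure in 96-well plates, responses at five concentrations were used to interpolate endpoints linearly. GI50 is the concentration that inhibits growth by half. TGI marks complete inhibition of growth.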
Columns and labels:
Assay in all cases: growth of human tumour cells (NCI), 48 h
EKVX NSCLC = system: EKVX NSCLC
HOP-62 NSCLC = system: HOP-62 NSCLC
KM12 colon = system: KM12 colon
LOX IMVI melanoma = system: LOX IMVI melanoma
M14 melanoma = system: M14 melanoma
MDA-MB-435 = system: MDA-MB-435
MOLT-4 leukemia = system: MOLT-4 leukemia
OVCAR-4 ovarian = system: OVCAR-4 ovarian
RXF 393 renal = system: RXF 393 renal
SNB-19 CNS = system: SNB-19 CNS

SMILES | GI50 (EKVX NSCLC) [µM] | TGI (EKVX NSCLC) | GI50 (HOP-62 NSCLC) | TGI (HOP-62 NSCLC) | GI50 (KM12 colon) [µM] | TGI (KM12 colon) [µM] | GI50 (LOX IMVI melanoma) [µM] | TGI (LOX IMVI melanoma) [µM] | GI50 (M14 melanoma) [µM] | TGI (M14 melanoma) | GI50 (MDA-MB-435) [µM] | TGI (MDA-MB-435) | GI50 (MOLT-4 leukemia) [µM] | TGI (MOLT-4 leukemia) | GI50 (OVCAR-4 ovarian) [µM] | TGI (OVCAR-4 ovarian) | GI50 (RXF 393 renal) [µM] | TGI (RXF 393 renal) | GI50 (SNB-19 CNS) [µM] | TGI (SNB-19 CNS)
C=C(C)[C@@H]1CC[C@]2(C)[C@H](C(=O)C=C3[C@@H]4C[C@](C)(C(=O)N5CCN(C)CC5)CC[C@]4(C)CC[C@]32C)[C@@]1(C)CCC#N | 7.24 | 14 µM | 6.33 µM | 13.3 µM | 6.43 | 13.4 | 6.24 | 12.6 | 6.86 | 14.1 µM | 7.33 | 14.2 µM | 2.95 | 10.9 µM | 6.21 | 13.6 µM | 5.32 | 11.4 µM | 7.87 | 14.9 µM
CC(C)CCOc1ccc(-c2n[nH]c(C(F)(F)F)c2-c2cncc(C#N)c2)c(O)c1 | 2.28 | 13.2 µM | 2.61 µM | 7.65 µM | 3.33 | > 100 | 2.77 | 8.98 | 2.49 | 9.13 µM | 3.6 | 32.6 µM | 2.47 | 12.7 µM | 3.48 | > 100 µM | 1.96 | 6.15 µM | 2.98 | 31.5 µM
COc1ccc(Nn2c(SCC(=O)Nc3nc(-c4ccc(Cl)cc4)cs3)nc(C)c2C)cc1 | 1.92 | > 100 µM |  |  | 1.84 | 11.1 | 3.02 | 44.2 | 3.02 | > 100 µM | 3.22 | > 100 µM | 2.54 | > 100 µM | 4.02 | > 100 µM | 3.53 | 9.64 µM | 6.19 | > 100 µM
CCNCC(=O)O[C@]1(CC)C(=O)OCc2c1cc1n(c2=O)Cc2cc3ccccc3nc2-1 |  | > 100 µM |  | 0.274 µM |  | 13.4 |  | 1.22 |  | 13.7 µM |  | 7.82 µM |  | 0.159 µM |  | 8.84 µM |  | 1.74 µM |  | > 100 µM
CC[C@H]1CN2CCc3cc(OC)c(OC)cc3[C@@H]2C[C@@H]1C[C@H]1NCCc2cc(O)c(OC)cc21 |  | 0.0779 µM and 0.0344 µM and 0.0322 µM | 0.0245 µM and 0.0294 µM | 0.0967 µM and 0.735 µM and 0.13 µM |  |  | 0.00437 | 0.0134 | 0.00787 | 0.0222 µM and 0.015 µM | 0.0183 | 0.0377 µM and 0.156 µM |  | 0.074 µM and 0.323 µM |  |  |  | 0.0518 µM and 0.0717 µM |  | 0.0977 µM and 0.0271 µM
OCCCN=NNc1ccc(-c2nc3ccccc3[nH]2)cc1 | 15.5 | 52.6 µM | 50.5 µM | 71.3 µM | 5.12 | 24.9 |  |  | 39.9 | 69.4 µM | 3.44 | 16.1 µM | 43.6 | > 100 µM | 3.78 | > 100 µM | 4.06 | 18 µM | 22.9 | 48.8 µM
CCCCCC(O)C1C(=O)OC(C)C(O)/C=C/C=C/C=C/C=C\C=C(\C)C(O)CC(O)CC(O)CC(O)CC(O)CC(O)CC1O (stereo unspecified) | > 100 | > 100 µM | > 100 µM | > 100 µM | > 100 | > 100 | > 100 | > 100 | > 100 | > 100 µM | > 100 | > 100 µM | > 100 | > 100 µM | > 100 | 26.3 µM and > 100 µM | > 100 | > 100 µM | > 100 | > 100 µM
COc1ccc(-c2ccc(/C=N/n3c(COc4ccccc4Cl)nn(CN4CCN(C)CC4)c3=S)o2)c([N+](=O)[O-])c1 | 21.5 | 70.5 µM | 21.7 µM | 37 µM | 11.9 | 31.7 |  |  | 17.7 | 34.2 µM | 18.3 | 40.9 µM |  |  |  |  | 10.4 | 25 µM | 27.1 | > 100 µM
CCSCC(N)C(=O)O (stereo unspecified) |  | > 100 µM |  | > 100 µM |  | > 100 |  | > 100 |  | > 100 µM |  | > 100 µM |  |  |  | > 100 µM |  | > 100 µM |  | > 100 µM
CC(C)[C@@]12C[C@@H](OC(=O)[C@H]3CO3)[C@@](C)(O1)[C@@H]1CC[C@@H](C)[C@H]1[C@@H]2OC(=O)/C=C/c1ccccc1 | 16.3 | > 75.6 µM | 33.2 µM | > 100 µM | 19.1 | > 60 | 12.6 | 46.3 | 27 | > 100 µM | 20.6 | > 73.5 µM | 18.1 | > 100 µM | 11.5 | 30.2 µM | 1.3 | 17.8 µM | 21.6 | 74.6 µM
COc1cc2c(cc1OCCOS(C)(=O)=O)N=C[C@@H]1CCCN1C2=O |  | > 100 µM |  |  |  | > 100 | 15.7 | 29.5 | 18.7 | 34.6 µM |  | 37.7 µM |  | 65.8 µM |  | 58.5 µM |  | > 100 µM |  | > 100 µM
CCCCCCCC/C=C/CCCCCCCCC1=NCCN1CCO |  |  | 5.29 µM | 29.4 µM | 2.71 | 7.64 |  |  | 2.16 | 5.11 µM | 1.87 | 3.91 µM | 2.1 | 4.73 µM | 7 | 30.7 µM | 3.88 | 19.6 µM | 7.21 | 33.2 µM
COc1cc(C(=O)/C=C/c2cc(C(=O)c3cc(OC)c(OC)c(OC)c3)ccc2OC)ccc1N |  |  | 2.03 µM | 8.31 µM | 0.552 | 5.37 | 0.74 | 2.03 | 0.752 | 3.06 µM | 1.19 | > 100 µM | 0.616 | > 100 µM | 0.982 | > 100 µM |  |  |  | 
COc1cc(NCCCCN=C(N)NC(N)=NC(C)C)c2ncccc2c1 | 5.83 | > 62 µM | 13.7 µM | 28.6 µM | 1.48 | 11.8 | 3.68 | 15.5 | 14.6 | 38.3 µM | 12.9 | 26.7 µM | 3.28 | 16.6 µM | 0.0797 | 2.15 µM | > 47 | > 100 µM | 9.86 | 26.3 µM
O=P(O)(O)c1ccccc1 (tested in a mixture with another compound) |  | > 100 µM |  | > 100 µM |  | > 100 |  | > 100 |  | > 100 µM |  | > 100 µM |  |  |  | > 100 µM |  | > 100 µM |  | > 100 µM
